Measured values published in patent publication US7910751B2, “Heterocyclidene acetamide derivative” (Mochida Pharmaceutical Co., Ltd., priority 2005, dated 2011).

Molecular target: T1, human TRPV1 (Homo sapiens, UniProt Q8NER1)
T1 construct: expressed in transfected cells; host or cells: CHO-K1
Experiment: Measurement of capsaicin-induced Ca influx in human TRPV1 transformed CHO cell line using FDSS-6000
Assay type: cell-based
Details: concentration at which the capsaicin concentration-reaction curve is shifted two times to the right, human TRPV1 transformed CHO cells

T1 sequence (Q8NER1 whole entry): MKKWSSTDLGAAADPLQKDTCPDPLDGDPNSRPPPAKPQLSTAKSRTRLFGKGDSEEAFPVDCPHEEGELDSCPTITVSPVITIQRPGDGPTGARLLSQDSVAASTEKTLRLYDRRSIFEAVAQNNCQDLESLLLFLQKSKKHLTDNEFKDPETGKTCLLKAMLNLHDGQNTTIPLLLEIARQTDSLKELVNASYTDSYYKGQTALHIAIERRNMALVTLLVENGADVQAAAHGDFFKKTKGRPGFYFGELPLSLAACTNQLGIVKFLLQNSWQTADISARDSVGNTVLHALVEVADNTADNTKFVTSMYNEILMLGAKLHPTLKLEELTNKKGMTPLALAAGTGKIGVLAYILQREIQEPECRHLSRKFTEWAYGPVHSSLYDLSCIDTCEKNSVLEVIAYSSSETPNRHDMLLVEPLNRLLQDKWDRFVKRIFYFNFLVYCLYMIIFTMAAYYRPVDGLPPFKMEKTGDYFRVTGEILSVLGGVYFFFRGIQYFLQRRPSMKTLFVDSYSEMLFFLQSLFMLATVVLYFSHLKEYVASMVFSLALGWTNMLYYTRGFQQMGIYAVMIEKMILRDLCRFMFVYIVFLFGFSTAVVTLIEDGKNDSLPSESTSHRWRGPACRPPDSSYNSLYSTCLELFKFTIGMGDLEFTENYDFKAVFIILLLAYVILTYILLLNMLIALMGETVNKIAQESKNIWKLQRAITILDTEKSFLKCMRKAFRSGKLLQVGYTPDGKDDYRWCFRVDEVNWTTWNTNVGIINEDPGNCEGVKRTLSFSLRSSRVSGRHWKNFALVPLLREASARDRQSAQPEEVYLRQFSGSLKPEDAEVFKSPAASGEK

Structure (SMILES) | A2 VALUE
O=C(/C=C1\CCOc2cc(OC(F)(F)F)ccc21)Nc1cccc2c1CC(O)CC2 (stereo not drawn) [Example 210, (E)-2-(7-trifluoromethoxy-chroman-4-ylidene)-N-(7-hydroxy-5,6,7,8-tetrahydronaphthalen-1-yl)acetamide] | A (compounds of the present invention having an A2 value of less than 100 nM are represented by A)
O=C(/C=C1\CCOc2cc(C(F)(F)F)ccc21)Nc1cccc2c1CC(O)CC2 (stereo not drawn) [Example 72, (E)-2-(7-trifluoromethyl-chroman-4-ylidene)-N-(7-hydroxy-5,6,7,8-tetrahydronaphthalen-1-yl)acetamide] | A (compounds of the present invention having an A2 value of less than 100 nM are represented by A)
CCCCC(=O)N1CCC/C(=C\C(=O)Nc2ccc3cccnc3c2)c2ccc(C(F)(F)F)cc21 [Example 192, (E)-2-(1-pentanoyl-8-trifluoromethyl-1,2,3,4-tetrahydro-5H-benzo[b]azepin-5-ylidene)-N-(quinolin-7-yl)acetamide] | A (compounds of the present invention having an A2 value of less than 100 nM are represented by A)
O=C(/C=C1\CCCOc2cc(C(F)(F)F)ccc21)Nc1cccc2c1CC(O)CO2 (stereo not drawn) [Example 183, (E)-2-(8-trifluoromethyl-3,4-dihydrobenzo[b]oxepin-5(2H)-ylidene)-N-(3-hydroxy-chroman-5-yl)acetamide] | A (compounds of the present invention having an A2 value of less than 100 nM are represented by A)
CCCCC(=O)N1CC/C(=C\C(=O)Nc2cccc3ccc(O)cc23)c2ccc(C(F)(F)F)cc21 [Example 74, (E)-2-(1-pentanoyl-7-trifluoromethyl-2,3-dihydroquinolin-4(1H)-ylidene)-N-(7-hydroxynaphthalen-1-yl)acetamide] | A (compounds of the present invention having an A2 value of less than 100 nM are represented by A)
O=C(/C=C1\CCCOc2cc(C(F)(F)F)ccc21)Nc1ncc(CO)cc1Cl [Example 224, (E)-2-(8-trifluoromethyl-3,4-dihydrobenzo[b]oxepin-5(2H)-ylidene)-N-(3-chloro-5-hydroxymethyl-2-pyridyl)acetamide] | B (compounds having an A2 value of 100 nM or more are represented by B)
O=C(/C=C1\CCCOc2cc(C(F)(F)F)ccc21)Nc1ccc2c(c1)N(CCO)C(=O)CO2 [Example 234, (E)-2-(8-trifluoromethyl-3,4-dihydrobenzo[b]oxepin-5(2H)-ylidene)-N-(4-(2-hydroxyethyl)-2H-1,4-benzoxazin-3(4H)-on-6-yl)acetamide] | A (compounds of the present invention having an A2 value of less than 100 nM are represented by A)
O=C(/C=C1\CCCOc2cc(C(F)(F)F)ccc21)NCc1ccc(-n2cccn2)cc1 [Example 38, (E)-N-(4-(1H-pyrazolo-1-yl)phenylmethyl)-2-(8-trifluoromethyl-3,4-dihydrobenzo[b]oxepin-5(2H)-ylidene)acetamide] | B (compounds having an A2 value of 100 nM or more are represented by B)
O=C(/C=C1\CCCOc2cc(C(F)(F)F)ccc21)Nc1ccc(Cl)c(C(F)(F)F)c1 [Example 136, (E)-2-(8-trifluoromethyl-3,4-dihydrobenzo[b]oxepin-5(2H)-ylidene)-N-(4-chloro-3-(trifluoromethyl)phenyl)acetamide] | A (compounds of the present invention having an A2 value of less than 100 nM are represented by A)
O=C(/C=C1\CCN(C(=O)CCCC(F)(F)F)c2cc(C(F)(F)F)ccc21)Nc1cccc2c1CC(O)CC2 (stereo not drawn) [Example 93, (E)-2-(1-(5,5,5-trifluoropentanoyl)-7-trifluoromethyl-2,3-dihydroquinolin-4(1H)-ylidene)-N-(7-hydroxy-5,6,7,8-tetrahydronaphthalen-1-yl)acetamide] | A (compounds of the present invention having an A2 value of less than 100 nM are represented by A)
O=C(/C=C1\CCN(C(=O)Cc2ccccc2)c2cc(C(F)(F)F)ccc21)Nc1cccc2c1CC(O)CC2 (stereo not drawn) [Example 94, (E)-2-(1-phenylacetyl-7-trifluoromethyl-2,3-dihydroquinolin-4(1H)-ylidene)-N-(7-hydroxy-5,6,7,8-tetrahydronaphthalen-1-yl)acetamide] | A (compounds of the present invention having an A2 value of less than 100 nM are represented by A)
O=C(/C=C1\CCCOc2cc(C(F)(F)F)ccc21)Nc1ccc2c(c1)C(O)CC2 (stereo not drawn) [Example 175, (E)-2-(8-trifluoromethyl-3,4-dihydrobenzo[b]oxepin-5(2H)-ylidene)-N-(indan-1-ol-6-yl)acetamide] | A (compounds of the present invention having an A2 value of less than 100 nM are represented by A)
O=C(/C=C1\CCCOc2cc(C(F)(F)F)ccc21)Nc1ccc2c(c1)OCCCO2 [Example 142, (E)-2-(8-trifluoromethyl-3,4-dihydrobenzo[b]oxepin-5(2H)-ylidene)-N-(3,4-dihydro-2H-benzo[b]dioxepin-7-yl)acetamide] | A (compounds of the present invention having an A2 value of less than 100 nM are represented by A)
O=C(/C=C1\CCCOc2cc(C(F)(F)F)ccc21)Nc1cccc2cnccc12 [Example 11, (E)-2-(8-trifluoromethyl-3,4-dihydrobenzo[b]oxepin-5(2H)-ylidene)-N-(isoquinolin-5-yl)acetamide] | A (compounds of the present invention having an A2 value of less than 100 nM are represented by A)
O=C(/C=C1\CCCOc2cc(C(F)(F)F)ccc21)Nc1cccc(N2CCCC2CO)c1 (stereo not drawn) [Example 229] | B (compounds having an A2 value of 100 nM or more are represented by B)
CCCCC(=O)N1CCC/C(=C\C(=O)Nc2cccc3c2CC(O)CC3)c2ccc(C(F)(F)F)cc21 (stereo not drawn) [Example 190, (E)-2-(8-trifluoromethyl-1-pentanoyl-1,2,3,4-tetrahydro-5H-benzo[b]azepin-5-ylidene)-N-(7-hydroxy-5,6,7,8-tetrahydronaphthalen-1-yl)acetamide] | A (compounds of the present invention having an A2 value of less than 100 nM are represented by A)
Cc1cc(NC(=O)/C=C2\CCCOc3cc(C(F)(F)F)ccc32)n(C(C)(C)C)n1 [Example 46, (E)-N-(1-tert-butyl-3-methyl-1H-pyrazolo-5-yl)-2-(8-trifluoromethyl-3,4-dihydrobenzo[b]oxepin-5(2H)-ylidene)acetamide] | B (compounds having an A2 value of 100 nM or more are represented by B)
O=C(/C=C1\CCOc2ccccc21)Nc1ccc2c(c1)OCCO2 [Example 1, (E)-2-(chroman-4-ylidene)-N-(2,3-dihydrobenzo[b][1,4]dioxin-6-yl)acetamide] | B (compounds having an A2 value of 100 nM or more are represented by B)
O=C(/C=C1\CCNc2cc(C(F)(F)F)ccc21)Nc1cccc2c1CC(O)CC2 (stereo not drawn) [Example 106, (E)-2-(7-trifluoromethyl-2,3-dihydroquinolin-4(1H)-ylidene)-N-(7-hydroxy-5,6,7,8-tetrahydronaphthalen-1-yl)acetamide] | A (compounds of the present invention having an A2 value of less than 100 nM are represented by A)
O=C(/C=C1\CCCOc2cc(C(F)(F)F)ccc21)Nc1ccc2c(c1)C(CO)CCC2 (stereo not drawn) [Example 179, (E)-2-(8-trifluoromethyl-3,4-dihydrobenzo[b]oxepin-5(2H)-ylidene)-N-(8-hydroxymethyl-5,6,7,8-tetrahydronaphthalen-2-yl)acetamide] | A (compounds of the present invention having an A2 value of less than 100 nM are represented by A)
CC(C)(C)CC(=O)N1CC/C(=C\C(=O)Nc2ccc3cccnc3c2)c2ccc(C(F)(F)F)cc21 [Example 76, (E)-2-(1-(3,3-dimethylbutanoyl)-7-trifluoromethyl-2,3-dihydroquinolin-4(1H)-ylidene)-N-(quinolin-7-yl)acetamide] | A (compounds of the present invention having an A2 value of less than 100 nM are represented by A)
O=C(/C=C1\CCCOc2cc(C(F)(F)F)ccc21)Nc1ccc2ccn(CCO)c2c1 [Example 151, (E)-2-(8-trifluoromethyl-3,4-dihydrobenzo[b]oxepin-5(2H)-ylidene)-N-(1-(2-hydroxyethyl)indol-6-yl)acetamide] | A (compounds of the present invention having an A2 value of less than 100 nM are represented by A)
O=C(/C=C1\CCCOc2cc(C(F)(F)F)ccc21)Nc1ccc2cc[nH]c2c1 [Example 137, (E)-2-(8-trifluoromethyl-3,4-dihydrobenzo[b]oxepin-5(2H)-ylidene)-N-(indol-6-yl)acetamide] | A (compounds of the present invention having an A2 value of less than 100 nM are represented by A)
O=C(/C=C1\CCN(C(=O)C2CCC2)c2cc(C(F)(F)F)ccc21)Nc1ccc2cccnc2c1 [Example 75, (E)-2-(1-cyclobutanecarbonyl-7-trifluoromethyl-2,3-dihydroquinolin-4(1H)-ylidene)-N-(quinolin-7-yl)acetamide] | A (compounds of the present invention having an A2 value of less than 100 nM are represented by A)
O=C(/C=C1\CCN(C(=O)C2CCC(F)C2)c2cc(C(F)(F)F)ccc21)Nc1cccc2c1CC(O)CC2 (stereo not drawn) [Example 88, (E)-2-(1-(3-fluorocyclopentanecarbonyl)-7-trifluoromethyl-2,3-dihydroquinolin-4(1H)-ylidene)-N-(7-hydroxy-5,6,7,8-tetrahydronaphthalen-1-yl)acetamide] | A (compounds of the present invention having an A2 value of less than 100 nM are represented by A)
O=C(/C=C1\CCCOc2cc(C(F)(F)F)ccc21)Nc1cccc2c1CC(O)CC2 (stereo not drawn) [Example 64, (E)-2-(8-trifluoromethyl-3,4-dihydrobenzo[b]oxepin-5-(2H)-ylidene)-N-(7-hydroxy-5,6,7,8-tetrahydronaphthalen-1-yl)acetamide] | A (compounds of the present invention having an A2 value of less than 100 nM are represented by A)
O=C(/C=C1\CCCOc2cc(C(F)(F)F)ccc21)Nc1ccc2c(c1)C(=O)NC2 [Example 166, (E)-2-(8-trifluoromethyl-3,4-dihydrobenzo[b]oxepin-5(2H)-ylidene)-N-(2,3-dihydro-isoindol-1-on-6-yl)acetamide] | A (compounds of the present invention having an A2 value of less than 100 nM are represented by A)
